The values below come from ChEMBL document CHEMBL5518173, “Discovery of a novel anti-osteoporotic agent from marine fungus-derived structurally diverse sirenins” (Eur J Med Chem, 2024).

One data set concerns RAW264.7. Nature of the data set: Inhibition of LPS-induced NF-kappaB activation in mouse RAW264.7 cells transfected with luciferase reporter gene at 20 uM pretreated with compounds for 30 mins followed by LPS stimulation for 8 hrs by luciferase reporter gene assay. It is filed as cell-based. The note with it: time 8.5 hrs. In general terms: In a reporter assay the amount or activity of a reporter protein is the signal.

In data set [1] the test system is BMDM. Nature of the data set: Downregulation of TNF-alpha mRNA expression in mouse BMDM cells by real-time PCR analysis. It is filed as functional, cell-based. The note with it: dose 1-30 µM. (Real-time PCR tracks product formation cycle by cycle.)
Data set [2] has as its target T1, Interferon regulatory factor 3 (Homo sapiens) (UniProt Q14653).
T1 sequence (whole entry): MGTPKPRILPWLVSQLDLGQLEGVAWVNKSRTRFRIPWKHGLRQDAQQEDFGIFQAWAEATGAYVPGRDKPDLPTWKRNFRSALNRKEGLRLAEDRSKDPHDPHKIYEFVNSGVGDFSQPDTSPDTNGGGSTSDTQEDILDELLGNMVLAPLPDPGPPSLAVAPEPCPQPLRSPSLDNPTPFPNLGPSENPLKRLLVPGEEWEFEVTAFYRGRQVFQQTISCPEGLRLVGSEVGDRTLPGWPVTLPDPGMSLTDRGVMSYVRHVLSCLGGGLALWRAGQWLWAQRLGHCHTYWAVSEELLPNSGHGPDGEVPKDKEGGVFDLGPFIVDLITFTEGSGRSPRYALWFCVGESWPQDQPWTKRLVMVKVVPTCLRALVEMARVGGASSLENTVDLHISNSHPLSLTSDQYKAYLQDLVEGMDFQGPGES
Nature of the data set: Inhibition of IRF3 induced IFN-beta luciferase activation in HEK293T cells at 1 to 30 uM by Dual luciferase reporter assay. It is filed as cell-based. To be noted: dose 1-30 µM.

The species named for data set [3] is Danio rerio. The data set can be described thus: Anti osteoporosis activity in prednisolone induced Tg (ola.sp7:nlsGFP) Zebrafish model assessed as upregulation of vdrb-mRNA expression at 5 uM by real-time qPCR analysis. It counts as functional, organism-based.
The species named for data set [4] is Danio rerio. Nature of the data set: Anti osteoporosis activity in Tg (ola.sp7:nlsGFP) Zebrafish model assessed as reversal of prednisone induced bmp4 gene inhibition 2.5 to 10 uM by real-time qPCR analysis. To be noted: dose 2.5-10 µM. It counts as functional, organism-based.
Data set [5] in a line: Inhibition of LPS-induced NF-kappaB activation in mouse RAW264.7 cells transfected with luciferase reporter gene pretreated with compounds for 30 mins followed by LPS stimulation for 8 hrs by luciferase reporter gene assay. It is filed as cell-based.
Data set [6] is filed under the species Danio rerio. The data set can be described thus: Anti osteoporosis activity in prednisolone induced Tg (ola.sp7:nlsGFP) Zebrafish model assessed as upregulation of col1a2 mRNA expression at 5 uM by real-time qPCR analysis. It is filed as functional, organism-based.
Data set [7] addresses T2, Serine/threonine-protein kinase TBK1 (Homo sapiens) (UniProt Q9UHD2).
T2 sequence (whole entry): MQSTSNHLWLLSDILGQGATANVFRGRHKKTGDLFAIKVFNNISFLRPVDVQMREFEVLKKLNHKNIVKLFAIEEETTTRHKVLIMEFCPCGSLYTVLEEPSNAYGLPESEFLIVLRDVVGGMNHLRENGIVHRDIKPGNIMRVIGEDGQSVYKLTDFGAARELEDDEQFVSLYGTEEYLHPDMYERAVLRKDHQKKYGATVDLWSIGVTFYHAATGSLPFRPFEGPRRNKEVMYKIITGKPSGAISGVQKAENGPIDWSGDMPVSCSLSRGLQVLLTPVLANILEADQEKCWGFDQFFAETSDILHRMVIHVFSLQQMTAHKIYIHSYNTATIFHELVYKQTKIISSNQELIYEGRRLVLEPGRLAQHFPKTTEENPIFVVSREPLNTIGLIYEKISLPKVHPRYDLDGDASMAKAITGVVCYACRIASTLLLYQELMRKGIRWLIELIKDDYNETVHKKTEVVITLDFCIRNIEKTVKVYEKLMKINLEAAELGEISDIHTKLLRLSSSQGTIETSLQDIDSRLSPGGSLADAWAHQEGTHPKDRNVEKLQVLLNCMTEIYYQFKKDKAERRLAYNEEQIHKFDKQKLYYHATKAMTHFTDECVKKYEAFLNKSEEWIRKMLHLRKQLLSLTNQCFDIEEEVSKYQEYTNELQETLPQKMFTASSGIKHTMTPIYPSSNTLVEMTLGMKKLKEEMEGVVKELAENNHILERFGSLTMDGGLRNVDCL
The data set can be described thus: Inhibition of TBK1 induced IFN-beta luciferase activation in HEK293T cells at 1 to 30 uM by Dual luciferase reporter assay. It is filed as cell-based. The note with it: dose 1-30 µM.

The species named for data set [8] is Danio rerio. The data set can be described thus: Anti osteoporosis activity in prednisone induced Tg (ola.sp7:nlsGFP) Zebrafish model assessed as mitigation of fluorescence density reduction in zebrafish branchiostegal rays at 2.5 to 5 uM by microscopy based analysis. The note with it: dose 2.5-5 µM. It counts as functional, organism-based.
Data set [9] has as its system BMMC. The data set can be described thus: Anti-osteoporosis activity in mouse BMMC cells assessed as inhibition of RANKL-induced osteoclast differentiation measured after 3 days in presence of MCSF by TRAP staining based assay. To be noted: dose 5-15 µM, time 3.0 day. It is filed as functional, cell-based.
For data set [10], the species on record is Danio rerio. Nature of the data set: Anti osteoporosis activity in prednisolone induced Tg (ola.sp7:nlsGFP) Zebrafish model assessed as upregulation of frem2a mRNA expression at 5 uM by real-time qPCR analysis. It is filed as functional, organism-based.
The subject of a further data set is HEK293T. Nature of the data set: Inhibition of cGAS/STING induced IFN-beta luciferase activation in HEK293T cells at 1 to 30 uM by Dual luciferase reporter assay. It counts as cell-based. To be noted: Homo sapiens, dose 1-30 µM.
For data set [11], the species on record is Danio rerio. The data set can be described thus: Anti osteoporosis activity in prednisolone induced Tg (ola.sp7:nlsGFP) Zebrafish model assessed as upregulation of col4a6 mRNA expression at 5 uM by real-time qPCR analysis. It is filed as functional, organism-based.
For data set [12], the species on record is Danio rerio. The data set can be described thus: Anti osteoporosis activity in prednisone induced Tg (ola.sp7:nlsGFP) Zebrafish model assessed as mitigation of fluorescence density reduction in zebrafish opercle at 2.5 to 5 uM by microscopy based analysis. To be noted: dose 2.5-5 µM. It is filed as functional, organism-based.
For data set [13], the species on record is Danio rerio. Nature of the data set: Anti osteoporosis activity in Tg (ola.sp7:nlsGFP) Zebrafish model assessed as reversal of prednisone induced alp gene inhibition 2.5 to 10 uM by real-time qPCR analysis. It counts as functional, organism-based. To be noted: dose 2.5-10 µM.
For data set [14], the species on record is Danio rerio. Nature of the data set: Anti osteoporosis activity in prednisolone induced Tg (ola.sp7:nlsGFP) Zebrafish model assessed as upregulation of itbg5 mRNA expression at 5 uM by real-time qPCR analysis. It counts as functional, organism-based.
The species named for data set [15] is Danio rerio. The data set can be described thus: Anti osteoporosis activity in prednisolone induced Tg (ola.sp7:nlsGFP) Zebrafish model assessed as upregulation of frem2b mRNA expression at 5 uM by real-time qPCR analysis. It counts as functional, organism-based.
In data set [16] the test system is BMDM. Nature of the data set: Downregulation of IFN-beta mRNA expression in mouse BMDM cells by real-time PCR analysis. To be noted: dose 1-30 µM. It is filed as functional, cell-based.
Data set [17] concerns BMMC. Nature of the data set: Cytotoxicity against mouse BMMC cells at 5 to 15 uM measured after 72 hrs by MTT assay. It counts as toxicity, cell-based. The note with it: dose 5-15 µM.
The subject of data set [18] is BMDM. The data set can be described thus: Downregulation of CXCL10 mRNA expression in mouse BMDM cells by real-time PCR analysis. It counts as functional, cell-based. To be noted: dose 1-30 µM.
The species entered for data set [19] is Danio rerio. Nature of the data set: Anti osteoporosis activity in prednisone induced Tg (ola.sp7:nlsGFP) Zebrafish model assessed as mitigation of fluorescence area reduction in zebrafish opercle at 2.5 to 5 uM by microscopy based analysis. It counts as functional, organism-based. The note with it: dose 2.5-5 µM.
The species named for data set [20] is Danio rerio. Nature of the data set: Anti osteoporosis activity in Tg (ola.sp7:nlsGFP) Zebrafish model assessed as reversal of prednisone induced bmp2a gene inhibition 2.5 to 10 uM by real-time qPCR analysis. It counts as functional, organism-based. The note with it: dose 2.5-10 µM.
The species entered for data set [21] is Danio rerio. The data set can be described thus: Anti osteoporosis activity in prednisone induced Tg (ola.sp7:nlsGFP) Zebrafish model assessed as mitigation of fluorescence area reduction in zebrafish branchiostegal rays at 2.5 to 5 uM by microscopy based analysis. It counts as functional, organism-based. To be noted: dose 2.5-5 µM.

Active and inactive are the calls of the source. The calls are words filed in the database; no cut-off is given here.

On to `CC(C)(O)C(=O)CC[C@@]1(C)[C@@H]2C=C(C(=O)O)CC[C@@H]21`, for which the inhibition result in the data set with RAW264.7 was “Active”.

Take `C[C@]1(C(=O)O)[C@@H]2C=C(C(=O)O)CC[C@@H]21`: the inhibition result with RAW264.7 is “Active”.

As to `COC(=O)CC[C@@]1(C)[C@@H]2C=C(C(=O)O)CC[C@@H]21`, the Activity entry is “Dose-Dependent Effect” in the data set on BMDM [1]; “Dose-Dependent Effect” in the data set on BMMC [9]; “Dose-Dependent Effect” in the data set with BMDM [16]; “Non-Toxic” with BMMC [17]; “Dose-Dependent Effect” in the data set with BMDM [18]. Moreover, the inhibition entry (in [2]; in [7]; in the data set on HEK293T; in the data set on RAW264.7) was “Active” in each case. For the same molecule, the outcome in the data set listed under Danio rerio [3], in the data set listed under Danio rerio [4], in the data set filed under Danio rerio [6], in the data set filed under Danio rerio [8], in the data set filed under Danio rerio [10] and in the data set listed under Danio rerio [11] was Active. For the same molecule, the outcome in the data set listed under Danio rerio [12], in the data set listed under Danio rerio [13], in the data set listed under Danio rerio [14], in the data set listed under Danio rerio [15], in the data set listed under Danio rerio [19] and in the data set listed under Danio rerio [20] was Active. Further, the result in the data set listed under Danio rerio [21] was Active. The IC50 (usually the point on the concentration scale where inhibition reaches its midpoint) in data set [5] turned out to be 14.5 µM.
